According to ChEMBL document CHEMBL1201862, “PubChem BioAssay data set” (2004):
The source made the active and inactive calls.

How the values were obtained:
[1] = Luminescence Cell-Based Dose Retest to Confirm Inhibitors of Cancer Stem Cells. [Related pubchem assays (depositor defined):AID2717, AID2721]; format: functional; conditions: Homo sapiens
[2] = NIH3T3 cell viability loss, ATP content – CellTiter-Glo luminescence, cherry-pick, set 2, cytotoxicity control for HSP40 inhibitor project, dose response (AID 624265); format: functional
[3] = target: ADP-ribosylation factor GTPase-activating protein 1 (Rattus norvegicus, UniProt Q62848); test: Fluorescence polarization-based biochemical high throughput dose response screening assay to identify inhibitors of ADP-ribosylation factor GTPase activating protein 1 (ARFGAP1).; format: functional
Sequence of ADP-ribosylation factor GTPase-activating protein 1 (Q62848 whole entry, the tested form may be a part): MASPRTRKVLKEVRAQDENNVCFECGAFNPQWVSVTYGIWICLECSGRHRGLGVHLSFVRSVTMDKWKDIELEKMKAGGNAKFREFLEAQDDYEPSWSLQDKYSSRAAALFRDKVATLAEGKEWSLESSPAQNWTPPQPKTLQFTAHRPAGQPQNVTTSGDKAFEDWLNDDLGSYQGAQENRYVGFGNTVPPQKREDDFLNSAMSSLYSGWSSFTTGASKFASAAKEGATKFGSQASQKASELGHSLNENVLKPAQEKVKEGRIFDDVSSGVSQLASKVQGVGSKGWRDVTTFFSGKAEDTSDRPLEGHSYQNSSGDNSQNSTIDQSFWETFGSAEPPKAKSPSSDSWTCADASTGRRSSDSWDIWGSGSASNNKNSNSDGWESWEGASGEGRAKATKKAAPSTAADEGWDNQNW

[4] = target: T1, Carboxy-terminal domain RNA polymerase II polypeptide A small phosphatase 1 (Homo sapiens, UniProt Q9GZU7); test: CTDSP1 inhibitors, concentration-response, biochemical, absorbance readout, ultra-high-throughput screen actives (AID 540297); format: functional
T1 sequence (Q9GZU7 whole entry): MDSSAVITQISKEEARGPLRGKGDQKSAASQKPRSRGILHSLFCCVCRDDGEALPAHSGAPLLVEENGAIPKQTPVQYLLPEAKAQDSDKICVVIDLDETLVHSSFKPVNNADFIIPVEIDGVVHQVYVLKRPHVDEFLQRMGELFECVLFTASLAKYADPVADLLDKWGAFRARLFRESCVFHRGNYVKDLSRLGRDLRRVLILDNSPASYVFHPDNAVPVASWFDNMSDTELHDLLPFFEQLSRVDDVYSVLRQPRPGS

[5] = target: DNA (cytosine-5)-methyltransferase 1 (Homo sapiens, UniProt P26358); test: inhibition of DNA methylation by DNMT1 – biochemical, fluorescent molecular beacon, confirmation (AID 602386); format: functional
Sequence of DNA (cytosine-5)-methyltransferase 1 (P26358 whole entry): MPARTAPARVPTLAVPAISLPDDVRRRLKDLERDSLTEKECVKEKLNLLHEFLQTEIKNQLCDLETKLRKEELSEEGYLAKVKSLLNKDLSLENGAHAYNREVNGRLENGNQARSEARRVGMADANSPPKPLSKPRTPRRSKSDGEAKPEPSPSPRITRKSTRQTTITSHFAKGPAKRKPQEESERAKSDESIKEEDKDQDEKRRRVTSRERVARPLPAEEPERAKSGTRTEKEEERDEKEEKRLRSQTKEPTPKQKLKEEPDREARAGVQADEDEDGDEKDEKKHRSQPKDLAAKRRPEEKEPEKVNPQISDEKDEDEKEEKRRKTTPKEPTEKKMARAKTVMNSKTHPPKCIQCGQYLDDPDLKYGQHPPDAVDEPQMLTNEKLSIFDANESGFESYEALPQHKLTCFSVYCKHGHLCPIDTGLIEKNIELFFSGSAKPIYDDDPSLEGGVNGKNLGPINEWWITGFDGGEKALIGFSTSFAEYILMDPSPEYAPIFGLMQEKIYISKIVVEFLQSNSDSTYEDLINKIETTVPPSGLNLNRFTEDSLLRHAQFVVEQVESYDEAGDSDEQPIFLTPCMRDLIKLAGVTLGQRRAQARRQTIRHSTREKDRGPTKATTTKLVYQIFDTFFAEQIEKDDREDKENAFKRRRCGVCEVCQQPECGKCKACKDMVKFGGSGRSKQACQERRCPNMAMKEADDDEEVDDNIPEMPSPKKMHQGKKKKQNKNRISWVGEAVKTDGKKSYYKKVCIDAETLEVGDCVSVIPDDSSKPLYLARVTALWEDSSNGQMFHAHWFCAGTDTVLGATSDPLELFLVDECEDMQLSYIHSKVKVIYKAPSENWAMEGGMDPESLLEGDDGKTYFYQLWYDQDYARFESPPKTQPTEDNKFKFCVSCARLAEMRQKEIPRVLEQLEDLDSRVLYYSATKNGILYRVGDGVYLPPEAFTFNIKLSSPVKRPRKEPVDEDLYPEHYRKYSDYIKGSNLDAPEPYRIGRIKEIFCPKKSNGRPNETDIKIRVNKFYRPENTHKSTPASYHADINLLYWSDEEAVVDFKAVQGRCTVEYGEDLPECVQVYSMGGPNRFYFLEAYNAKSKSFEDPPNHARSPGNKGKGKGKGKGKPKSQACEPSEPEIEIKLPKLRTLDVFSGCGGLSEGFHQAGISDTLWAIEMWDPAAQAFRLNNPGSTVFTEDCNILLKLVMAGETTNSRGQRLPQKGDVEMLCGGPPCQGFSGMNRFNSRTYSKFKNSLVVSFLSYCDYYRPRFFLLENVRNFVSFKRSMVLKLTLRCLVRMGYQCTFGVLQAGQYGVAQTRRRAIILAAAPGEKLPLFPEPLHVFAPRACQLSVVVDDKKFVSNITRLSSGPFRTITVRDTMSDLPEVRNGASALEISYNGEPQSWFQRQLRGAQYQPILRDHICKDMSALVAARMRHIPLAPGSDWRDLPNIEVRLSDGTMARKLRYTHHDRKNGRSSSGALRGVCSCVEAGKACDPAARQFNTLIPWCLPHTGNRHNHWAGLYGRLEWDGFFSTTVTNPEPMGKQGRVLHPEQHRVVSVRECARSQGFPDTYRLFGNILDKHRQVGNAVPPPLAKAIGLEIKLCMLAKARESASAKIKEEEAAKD

HEK293 [6] = test: SAR Analysis of small molecule inhibitors of B-cell specific antigen receptor-induced NF-kB activation in a HEK-293T cell line using a luminescence assay - Set 2. [Related pubchem assays (depositor defined):AID435022, AID435025, AID489021]; format: functional, cell-based; conditions: Homo sapiens
Jurkat = test: SAR Analysis of small molecule inhibitors of […] specific antigen receptor-induced NF-kB activation in a Jurkat cell line using a luminescence assay - Set 3. [Related pubchem assays (depositor defined):AID435022, AID435025, AID465]; format: functional, cell-based; conditions: Homo sapiens
HEK293 [7] = test: HEK293T cell viability loss, resazurin readout – resazurin fluorescence, cytotoxicity control for NF-kB activator project, SAR follow-up (AID 493251); format: functional, cell-based; conditions: Homo sapiens
[8] = reduction of Shn3 3'UTR-driven luciferase in osteoblasts – cell-based, Clone20 osteoblasts, firefly luciferase, cherry-picked, dose response (AID 624132); format: functional;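 further: firefly luciferase luminescence from reporter carrying the Shn3 3'UTR in osteoblasts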
Protein Wnt-3a = Protein Wnt-3a (Mus musculus, UniProt P27467); test: antagonism of Wnt3a pathway luciferase reporter – Wnt-LIGHT cells, luminescence, selectivity assay for Gli-SUFU antagonist project, dose response (AID 651570); format: functional; conditions: read-out: IC50_Mean;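 further: Wnt-LIGHT reporter cells stimulated with conditioned medium from Wnt3a-producing cells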
Sequence of Protein Wnt-3a (P27467 whole entry): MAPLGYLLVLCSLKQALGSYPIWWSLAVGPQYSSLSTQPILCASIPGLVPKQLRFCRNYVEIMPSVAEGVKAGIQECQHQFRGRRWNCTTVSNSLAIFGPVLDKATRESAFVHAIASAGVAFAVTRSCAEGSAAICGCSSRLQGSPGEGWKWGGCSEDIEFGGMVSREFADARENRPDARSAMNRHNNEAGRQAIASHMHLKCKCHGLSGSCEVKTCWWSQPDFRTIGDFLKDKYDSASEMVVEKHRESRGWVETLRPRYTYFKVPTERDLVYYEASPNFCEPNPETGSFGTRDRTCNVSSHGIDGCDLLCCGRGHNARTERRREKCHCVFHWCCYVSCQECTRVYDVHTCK

[9] = non-specific 3'UTR reporter inhibition in Clone20-Shn3RL – cell-based, Renilla luciferase, cherry-picked, counter-screen for Shn3 inhibitor project, dose response (AID 624133); format: functional
[10] = loss of viability in HepG2 cells – cell-based, CellTiter-Glo, cherry-picked, cytotoxicity control for Shn3 inhibitor project, dose response (AID 624134); format: functional
[11] = target: T2, Sentrin-specific protease 1 (Homo sapiens, UniProt Q9P0U3); test: SENP1 catalytic domain blockers, concentration series – biochemical, kinetic FRET, dose response (AID 651697); format: functional; conditions: read-out: IC50_Mean
T2 sequence (Q9P0U3 whole entry, the tested form may be a part): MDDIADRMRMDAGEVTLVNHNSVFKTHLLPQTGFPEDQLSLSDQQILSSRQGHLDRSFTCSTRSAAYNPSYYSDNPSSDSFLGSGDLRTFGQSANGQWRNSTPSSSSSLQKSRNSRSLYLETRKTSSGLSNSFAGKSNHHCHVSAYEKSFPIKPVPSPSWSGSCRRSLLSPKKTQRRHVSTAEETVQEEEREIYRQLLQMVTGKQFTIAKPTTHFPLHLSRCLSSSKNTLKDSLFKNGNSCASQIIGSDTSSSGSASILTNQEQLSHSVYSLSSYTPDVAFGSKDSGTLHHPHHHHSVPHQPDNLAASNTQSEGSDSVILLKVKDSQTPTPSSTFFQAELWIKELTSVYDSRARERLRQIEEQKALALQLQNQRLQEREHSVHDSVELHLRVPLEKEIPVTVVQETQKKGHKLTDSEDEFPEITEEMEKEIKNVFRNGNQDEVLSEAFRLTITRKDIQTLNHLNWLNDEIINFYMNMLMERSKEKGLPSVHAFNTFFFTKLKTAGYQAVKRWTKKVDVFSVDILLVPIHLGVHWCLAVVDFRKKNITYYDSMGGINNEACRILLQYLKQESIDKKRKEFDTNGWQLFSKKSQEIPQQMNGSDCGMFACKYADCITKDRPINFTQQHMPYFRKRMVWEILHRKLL

Melanocortin receptor 4 = Melanocortin receptor 4 (Homo sapiens, UniProt P32245); format: functional, cell-based;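 further: Cell-based assay with luminescence read-out, confirmatory dose-response testing for agonist activity of biased ligands at MC4R; human U2OS cells with tagged receptor and beta-arrestin; potency of agonists that increase receptor coupling to beta-arrestin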
Sequence of Melanocortin receptor 4 (P32245 whole entry, the tested form may be a part): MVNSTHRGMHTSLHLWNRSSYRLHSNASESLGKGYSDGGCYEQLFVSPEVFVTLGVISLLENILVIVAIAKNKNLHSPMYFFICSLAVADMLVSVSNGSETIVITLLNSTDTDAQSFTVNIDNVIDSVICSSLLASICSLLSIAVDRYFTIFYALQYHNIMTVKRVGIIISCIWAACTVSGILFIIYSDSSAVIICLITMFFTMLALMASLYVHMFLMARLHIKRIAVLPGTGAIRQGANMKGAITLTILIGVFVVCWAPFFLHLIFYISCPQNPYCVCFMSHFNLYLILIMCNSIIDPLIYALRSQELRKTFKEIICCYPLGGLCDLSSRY

[12] = target: T2, Sentrin-specific protease 1; test: Dose response confirmation of small molecule inhibitors of the catalytic domain of the SUMO protease, SENP1 in a FRET assay.; format: functional; conditions: read-out: IC50_Mean
Cysteine protease ATG4B = Cysteine protease ATG4B (Homo sapiens, UniProt Q9Y4P1); format: functional;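 further: Fluorescence-based dose-response confirmation assay measuring inhibition of ATG4B activity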
Phospholipase A2 = Phospholipase A2 (Homo sapiens, UniProt P04054); format: functional;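 further: confirmatory dose-response counterscreen on phospholipase A2, testing hits that came from an ultra-high-throughput screen for ATG4B inhibitors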
Sequence of Phospholipase A2 (P04054 whole entry): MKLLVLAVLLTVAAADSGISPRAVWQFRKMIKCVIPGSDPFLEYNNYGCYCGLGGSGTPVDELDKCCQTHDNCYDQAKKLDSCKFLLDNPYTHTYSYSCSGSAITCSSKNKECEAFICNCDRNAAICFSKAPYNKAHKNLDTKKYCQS

[13] = target: T3, Dual specificity protein phosphatase 3 (Homo sapiens, UniProt P51452); test: SAR VHR1 Fluorescent Assay for In Vitro dose response studies Set 3. [Related pubchem assays (depositor defined):AID1654, AID1661, AID1878]; format: functional
T3 sequence (P51452 whole entry): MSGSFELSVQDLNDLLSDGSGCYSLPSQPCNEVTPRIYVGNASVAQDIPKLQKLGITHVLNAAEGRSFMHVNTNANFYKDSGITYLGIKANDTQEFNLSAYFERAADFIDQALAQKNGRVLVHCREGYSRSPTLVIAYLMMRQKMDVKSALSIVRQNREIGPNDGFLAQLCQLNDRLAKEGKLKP

[14] = target: Tyrosine-protein phosphatase non-receptor type 5 (Homo sapiens, UniProt P54829); test: PTPN5 enzyme inhibition – biochemical, fluorescence intensity, uHTS hits, confirmation (AID 602372); format: functional; conditions: read-out: IC50_Mean
Sequence of Tyrosine-protein phosphatase non-receptor type 5 (P54829 whole entry): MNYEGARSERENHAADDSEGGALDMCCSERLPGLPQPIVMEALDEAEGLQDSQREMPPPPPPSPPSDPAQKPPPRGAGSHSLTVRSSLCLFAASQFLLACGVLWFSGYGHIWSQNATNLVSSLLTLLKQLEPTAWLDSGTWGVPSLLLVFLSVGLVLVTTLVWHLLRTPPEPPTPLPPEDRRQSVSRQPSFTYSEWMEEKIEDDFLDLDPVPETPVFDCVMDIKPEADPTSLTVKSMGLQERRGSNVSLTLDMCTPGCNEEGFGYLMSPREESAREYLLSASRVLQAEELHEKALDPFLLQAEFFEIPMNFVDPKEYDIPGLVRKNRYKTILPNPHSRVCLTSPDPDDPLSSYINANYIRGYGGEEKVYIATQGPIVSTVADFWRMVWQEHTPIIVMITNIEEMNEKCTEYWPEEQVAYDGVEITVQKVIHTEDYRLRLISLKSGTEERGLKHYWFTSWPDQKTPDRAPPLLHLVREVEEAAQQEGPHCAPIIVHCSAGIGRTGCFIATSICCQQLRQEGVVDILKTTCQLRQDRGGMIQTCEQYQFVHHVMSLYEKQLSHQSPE

[15] = target: Tyrosine-protein phosphatase non-receptor type 11 (Homo sapiens, UniProt Q06124); test: PTPN11 enzyme inhibitors – biochemical, selectivity assay for STEP inhibitor project, dose response (AID 602367); format: functional; conditions: read-out: IC50_Mean
Sequence of Tyrosine-protein phosphatase non-receptor type 11 (Q06124 whole entry): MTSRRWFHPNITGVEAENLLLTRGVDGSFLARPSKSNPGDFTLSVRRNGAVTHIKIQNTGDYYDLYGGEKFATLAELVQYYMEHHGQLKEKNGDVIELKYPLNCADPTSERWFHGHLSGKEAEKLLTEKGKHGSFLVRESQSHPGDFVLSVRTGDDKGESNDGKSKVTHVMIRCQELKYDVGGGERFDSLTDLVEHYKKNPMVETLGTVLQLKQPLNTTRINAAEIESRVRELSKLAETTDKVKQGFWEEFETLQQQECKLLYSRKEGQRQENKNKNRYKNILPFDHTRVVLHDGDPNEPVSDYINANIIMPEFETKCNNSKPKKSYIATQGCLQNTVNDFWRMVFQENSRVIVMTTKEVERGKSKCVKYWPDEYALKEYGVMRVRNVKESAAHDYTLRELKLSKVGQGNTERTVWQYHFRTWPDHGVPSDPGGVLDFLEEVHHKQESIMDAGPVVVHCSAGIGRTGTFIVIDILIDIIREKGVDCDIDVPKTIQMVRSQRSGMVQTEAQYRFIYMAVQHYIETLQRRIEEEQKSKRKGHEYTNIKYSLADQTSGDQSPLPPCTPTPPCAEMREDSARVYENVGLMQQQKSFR

[16] = target: T3, Dual specificity protein phosphatase 3; test: VHR phosphatase inhibition, dose response, selectivity assay for STEP inhibitor project, biochemical (AID 602374); format: functional; conditions: read-out: IC50_Mean
A-375 [17] = test: proliferation inhibition in MITF-low A375 cells – cell-based, cherry-pick samples, set 2, counter-screen for MITF modulator project, dose response (AID 540335); format: functional; conditions: Homo sapiens
A-375 [18] = test: MITF: Counter assay: A375 proliferation Measured in Cell-Based System Using Plate Reader - 2084-03_Inhibitor_Dose_DryPowder_Activity. [Related pubchem assays (depositor defined):AID488944]; format: functional; conditions: Homo sapiens
[19] = target: Adenosylmethionine-8-amino-7-oxononanoate aminotransferase (Mycobacterium tuberculosis, UniProt P9WQ81); test: Mycobacterium tuberculosis BioA enzyme inhibitor Measured in Biochemical System Using Plate Reader - 2163-02_Inhibitor_Dose_CherryPick_Activity.; format: functional, Mycobacterium tuberculosis UT205

Q: For `COc1ccc(-c2oc3ccccc3c2C#Cc2cncn2C)cc1`, which AC50 [1] is on record?
A: Its AC50 is 2.05 µM (active).

Q: What about the AbsAC35_uM [2] of the same molecule?
A: The AbsAC35_uM was 54.48 µM.

Q: Which IC50 [3] does the source give for `CC1CC(C)CN(C(=O)COC(=O)c2cn(C)c3ccccc23)C1` (centres undefined) here?
A: Its IC50 is 28.4 µM (inactive).

Q: Which results are given for `Cc1ccc(C(=O)NN2CC(=O)C(c3nc(-c4cccc([N+](=O)[O-])c4)cs3)=C2N)cc1`?
A: IC50 [4]: 4.06 µM (active); IC50 [5]: > 99 µM (inactive)

Q: What does the source list for `CC(C)(C)c1ccc(-c2noc(CCC(=O)N3CCCCC3)n2)cc1`?
A: IC50 (HEK293 [6]): 17.4 µM (active); IC50 (Jurkat): 11.6 µM (active); IC50 (HEK293 [7]): 39.7 µM (inactive)

Q: Which AC50 [8] does the source give for `CN(Cc1ccc(OC(F)F)cc1)C(=O)c1cccc(S(=O)(=O)N2CCN(Cc3ccccc3)CC2)c1` here?
A: The AC50 was 2.37 µM (active).

Q: And the IC50 (Protein Wnt-3a)?
A: Its IC50 is 6.19 µM (active).

Q: What about the AC50 [9] of the same molecule?
A: Its AC50 is 2.94 µM (active).

Q: And the AC50 [10]?
A: Its AC50 is 57.2 µM (active).

Q: With `COc1ccc(-c2ccc3c(c2)S(=O)(=O)c2cccc(C(=O)NCc4cc(C)oc4C(F)(F)F)c2C3=O)cc1OC` as the molecule, how does the IC50 [11] read?
A: Its IC50 is 15.8 µM (active).

Q: What about the EC50 (Melanocortin receptor 4) of the same molecule?
A: The EC50 was > 89.2 µM (inactive).

Q: What about the IC50 [12] of the same molecule?
A: Its IC50 is 13.3 µM (active).

Q: What does the source list for `S=C(NCc1ccccc1)Nc1cccc(Cl)c1`?
A: IC50 (Cysteine protease ATG4B): 13.3 µM (active); IC50 (Phospholipase A2): 8.8 µM (active)

Q: With `COc1ccc(C(=O)NNc2nc3c(OC)cccc3s2)cc1` as the molecule, how does the IC50 [13] read?
A: Its IC50 is > 66 µM (inactive).

Q: Which IC50 [14] does the source give for `O=C(N/N=C/c1cccc(Br)c1)c1ccc(N2CCCC2=O)cc1` here?
A: Its IC50 is 11.7 µM (active).

Q: What about the IC50 [15] of the same molecule?
A: Its IC50 is 7.26 µM (active).

Q: What about the IC50 [16] of the same molecule?
A: The IC50 was 7.56 µM (active).

Q: What does the source list for `CN(C)c1ccc(/C=N/N2CCN(c3ccccn3)CC2)cc1`?
A: AC50 (A-375 [17]): > 35 µM (active); AC50 (A-375 [18]): > 35 µM (active)

Q: With `COc1cccc(NC(=O)N2C[C@H](O)COC[C@@H]3O[C@@H](CC(=O)N(C)C)CC[C@H]32)c1` as the molecule, how does the AC50 [19] read?
A: Its AC50 is 0.596 µM (active).
